Reference: US11999702B1, “4,5-bis(4-chlorophenyl)-1-hexyl-2-(3,4-dimethoxyphenyl)-1H-imidazole as an antimicrobial compound” (KING FAISAL UNIVERSITY, priority 2023, dated 2024)

Columns and labels:
Assay type in all cases: cell-based
Conditions in all cases: after 10, 20, 40 and 60 minutes at all dilutions 1:100, 1:200, 1:400, 1:800
Staphylococcus aureus = assay: Antimicrobial testing by agar dilution, Staphylococcus aureus
Procedure: (§1) The antimicrobial properties of the 4,5-bis(4-chlorophenyl)-1-hexyl-2-(3,4-dimethoxyphenyl)-1H-imidazole (5) were studied by the method of agar dilution. Test solutions of each compound were prepared in concentration of 1% using dimethylformamide as a solvent then they are diluted in physiological solution to obtain the final experimental dilutions 1:100, 1:200, 1:400, 1:800. The effect of these substances were compared with furacillin in a controllable study. The testing microbes used were gram positive bacteria Staphylococcus aureus, gram negative bacteria Escherichia coli, Pseudomonas aeruginosa and Candida albicans fungi were taken. The experiments used for this survey were meat-pentonlu agar (EPA) for cultivation of bacteria and Saburo environment for fungi. Each experiment used 1 ml of test solution on each plate 500 min. Add 2 drops of emulsified with microbes feel. All experimental samples were taken from the agar after 10, 20, 40, 60 minutes in the environment on the basis of Patrk planted. Bacteria were cultivated at a temperature of 37° C. for 1 day and the mushroom was kept in a thermostat for […] at a temperature of 28° C. in the. Then results were checked.

Escherichia coli = assay: Antimicrobial testing by agar dilution, Escherichia coli
Procedure: as §1

Pseudomonas aeruginosa = assay: Antimicrobial testing by agar dilution, Pseudomonas aeruginosa
Procedure: as §1

Candida albicans = assay: Antimicrobial testing by agar dilution, Candida albicans
Procedure: as §1

Measured: inhibition activity

CCCCCCn1c(-c2ccc(OC)c(OC)c2)nc(-c2ccc(Cl)cc2)c1-c1ccc(Cl)cc1 [4,5-bis(4-chlorophenyl)-1-hexyl-2-(3,4-dimethoxyphenyl)-1H-imidazole]
highest inhibition activity: all assays above
